Measurements: ChEMBL document CHEMBL5614381, “Farnesyl pyrophosphate synthase inhibitors with antiosteoporosis efficacy in ovariectomized rats: A mixed binding approach beyond bisphosphonates” (Eur J Med Chem, 2024)
Active and inactive are the calls of the source. The calls are words filed in the database; no cut-off is given here.

Legend:
[1] = biological target: T1, Farnesyl pyrophosphate synthase (Homo sapiens, UniProt P14324); test: Inhibition of human recombinant FPPS using IPP as substrate preincubated with enzyme for 15 mins followed by substrate addition and measured after 1 hr
T1 sequence (P14324 whole entry): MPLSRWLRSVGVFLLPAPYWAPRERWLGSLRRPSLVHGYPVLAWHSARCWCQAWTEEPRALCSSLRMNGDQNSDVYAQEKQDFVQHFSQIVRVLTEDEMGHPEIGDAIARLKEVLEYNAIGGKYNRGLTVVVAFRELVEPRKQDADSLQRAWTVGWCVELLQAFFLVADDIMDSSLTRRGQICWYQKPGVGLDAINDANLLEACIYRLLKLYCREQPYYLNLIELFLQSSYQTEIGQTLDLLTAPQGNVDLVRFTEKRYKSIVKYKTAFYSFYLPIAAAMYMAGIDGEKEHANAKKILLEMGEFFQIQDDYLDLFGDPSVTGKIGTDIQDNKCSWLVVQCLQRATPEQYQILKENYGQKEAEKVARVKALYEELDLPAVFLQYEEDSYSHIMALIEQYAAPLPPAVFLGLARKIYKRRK

Rattus norvegicus [2] = test: Anti-osteoporosis activity against ovariectomized Wistar rat assessed as inhibition of ovariectomy-induced osteoporosis by measuring decrease in serum phosphate level at 7.5 ug/kg, ip administered once a week for 8 weeks following bilateral ovariectomy; assay type: functional, organism-based; conditions: dose 7.5 µg/kg
Rattus norvegicus [3] = test: Anti-osteoporosis activity against ovariectomized Wistar rat assessed as inhibition of ovariectomy-induced osteoporosis by measuring decrease in urinary calcium level at 7.5 ug/kg, ip administered once a week for 8 weeks following bilateral ovariectomy; assay type: functional, organism-based; conditions: dose 7.5 µg/kg
Rattus norvegicus [4] = test: Anti-osteoporosis activity against ovariectomized Wistar rat assessed as inhibition of ovariectomy-induced osteoporosis by measuring serum estradiol level at 7.5 ug/kg, ip administered once a week for 8 weeks following bilateral ovariectomy; assay type: functional, organism-based; conditions: dose 7.5 µg/kg
Rattus norvegicus [5] = test: Anti-osteoporosis activity against ovariectomized Wistar rat assessed as inhibition of ovariectomy-induced osteoporosis by measuring decrease in serum calcium level at 7.5 ug/kg, ip administered once a week for 8 weeks following bilateral ovariectomy; assay type: functional, organism-based; conditions: dose 7.5 µg/kg
Rattus norvegicus [6] = test: Anti-osteoporosis activity against ovariectomized Wistar rat assessed as inhibition of ovariectomy-induced osteoporosis by measuring increase in serum OPG level at 7.5 ug/kg, ip administered once a week for 8 weeks following bilateral ovariectomy relative to ovariectomized control; assay type: functional; parameters: scale not given: the % may be the effect or the level left; conditions: dose 7.5 µg/kg
Rattus norvegicus [7] = test: Anti-osteoporosis activity against ovariectomized Wistar rat assessed as inhibition of ovariectomy-induced osteoporosis by measuring decrease in urinary phosphate level at 7.5 ug/kg, ip administered once a week for 8 weeks following bilateral ovariectomy; assay type: functional, organism-based; conditions: dose 7.5 µg/kg
Rattus norvegicus [8] = test: Anti-osteoporosis activity against ovariectomized Wistar rat assessed as inhibition of ovariectomy-induced osteoporosis by measuring reduction in serum RANKL/OPG level at 7.5 ug/kg, ip administered once a week for 8 weeks following bilateral ovariectomy relative to ovariectomized control; assay type: functional; conditions: 1344 h, dose 7.5 µg/kg
Rattus norvegicus [9] = test: Anti-osteoporosis activity against ovariectomized Wistar rat assessed as inhibition of ovariectomy-induced osteoporosis by measuring increase in serum osteoclacin level at 7.5 ug/kg, ip administered once a week for 8 weeks following bilateral ovariectomy relative to ovariectomized control; assay type: functional; parameters: scale not given: the % may be the effect or the level left; conditions: dose 7.5 µg/kg
Rattus norvegicus [10] = test: Anti-osteoporosis activity against ovariectomized Wistar rat assessed as inhibition of ovariectomy-induced osteoporosis by measuring decrease in bone-specific isoenzyme of alkaline phosphatase level in serum at 7.5 ug/kg, ip administered once a week for 8 weeks following bilateral ovariectomy; assay type: functional, organism-based; conditions: dose 7.5 µg/kg
Rattus norvegicus [11] = test: Anti-osteoporosis activity against ovariectomized Wistar rat assessed as inhibition of ovariectomy-induced osteoporosis by measuring reduction in serum RANKL level at 7.5 ug/kg, ip administered once a week for 8 weeks following bilateral ovariectomy; assay type: functional, organism-based; conditions: dose 7.5 µg/kg
Rattus norvegicus [12] = test: Anti-osteoporosis activity against ovariectomized Wistar rat assessed as inhibition of ovariectomy-induced osteoporosis by measuring fold increase in serum osteoclacin level at 1 to 10 mg/kg, po administered daily for 8 weeks following bilateral ovariectomy relative to ovariectomized control; assay type: functional; conditions: dose 1-10 mg/kg
Rattus norvegicus [13] = test: Anti-osteoporosis activity against ovariectomized Wistar rat assessed as inhibition of ovariectomy-induced osteoporosis by measuring reduction in serum RANKL level at 0.1 to 10 mg/kg, po administered daily for 8 weeks following bilateral ovariectomy; assay type: functional, organism-based; conditions: dose 0.1-10 mg/kg
Rattus norvegicus [14] = test: Anti-osteoporosis activity against ovariectomized Wistar rat assessed as inhibition of ovariectomy-induced osteoporosis by measuring decrease in urinary phosphate level at 0.1 to 10 mg/kg, po administered daily for 8 weeks following bilateral ovariectomy; assay type: functional, organism-based; conditions: dose 0.1-10 mg/kg
Rattus norvegicus [15] = test: Anti-osteoporosis activity against ovariectomized Wistar rat assessed as inhibition of ovariectomy-induced osteoporosis by measuring decrease in bone-specific isoenzyme of alkaline phosphatase level in serum at 10 mg/kg, po administered daily for 8 weeks following bilateral ovariectomy relative to control; assay type: functional; conditions: 1344 h
Rattus norvegicus [16] = test: Anti-osteoporosis activity against ovariectomized Wistar rat assessed as inhibition of ovariectomy-induced osteoporosis by measuring increase in serum OPG level at 10 mg/kg, po administered daily for 8 weeks following bilateral ovariectomy relative to ovariectomized control; assay type: functional; parameters: scale not given: the % may be the effect or the level left
Rattus norvegicus [17] = test: Anti-osteoporosis activity against ovariectomized Wistar rat assessed as inhibition of ovariectomy-induced osteoporosis by measuring decrease in serum phosphate level at 1 mg/kg, po administered daily for 8 weeks following bilateral ovariectomy; assay type: functional, organism-based
Rattus norvegicus [18] = test: Anti-osteoporosis activity against ovariectomized Wistar rat assessed as inhibition of ovariectomy-induced osteoporosis by measuring reduction in serum RANKL/OPG level at 10 mg/kg, po administered daily for 8 weeks following bilateral ovariectomy relative to ovariectomized control; assay type: functional; conditions: 1344 h
Rattus norvegicus [19] = test: Anti-osteoporosis activity against ovariectomized Wistar rat assessed as inhibition of ovariectomy-induced osteoporosis by measuring increase in bone mineral content at 10 mg/kg, po administered daily for 8 weeks following bilateral ovariectomy; assay type: functional, organism-based
Rattus norvegicus [20] = test: Anti-osteoporosis activity against ovariectomized Wistar rat assessed as inhibition of ovariectomy-induced osteoporosis by measuring increase in bone mineral density at 1 mg/kg, po administered daily for 8 weeks following bilateral ovariectomy; assay type: functional, organism-based
Rattus norvegicus [21] = test: Anti-osteoporosis activity against ovariectomized Wistar rat assessed as inhibition of ovariectomy-induced osteoporosis by measuring decrease in urinary calcium level at 1 mg/kg, po administered daily for 8 weeks following bilateral ovariectomy; assay type: functional, organism-based
Rattus norvegicus [22] = test: Anti-osteoporosis activity against ovariectomized Wistar rat assessed as inhibition of ovariectomy-induced osteoporosis by measuring serum estradiol level at 0.1 to 10 mg/kg, po administered daily for 8 weeks following bilateral ovariectomy; assay type: functional, organism-based; conditions: dose 0.1-10 mg/kg

COc1cc(C(O)P(=O)(OC)OC)ccc1OCCOc1ccc(C(O)P(=O)(OC)OC)cc1OC (stereo unspecified)
IC50 [1]: 21.4 µM

COc1cc(/C=C/C#N)ccc1OCCOc1ccc(/C=C/C#N)cc1OC
IC50 [1]: 3.22 µM

COc1cc(C2SP(=S)(Sc3ccccc3)S2)ccc1OCCOc1ccc(C2SP(=S)(Sc3ccccc3)S2)cc1OC (stereo unspecified)
IC50 [1]: 3.37 µM

O=P(O)(O)C(O)(Cn1ccnc1)P(=O)(O)O [ZOLEDRONIC ACID ANHYDROUS]
Activity (Rattus norvegicus [2]): Active | Activity (Rattus norvegicus [3]): inactive | Activity (Rattus norvegicus [4]): inactive | Activity (Rattus norvegicus [5]): Active | Activity (Rattus norvegicus [6]): 46% | Activity (Rattus norvegicus [7]): Active | inhibition in vivo at 0.0075 mg/kg (Rattus norvegicus [8]): 38% | Activity (Rattus norvegicus [9]): 174% | Activity (Rattus norvegicus [10]): Active | Activity (Rattus norvegicus [11]): inactive

COc1cc(C(O)P(=O)(N(C)C)N(C)C)ccc1OCCOc1ccc(C(O)P(=O)(N(C)C)N(C)C)cc1OC (stereo unspecified)
IC50 [1]: 5.54 µM

CCN(CC)P(=O)(C(O)c1ccc(OCCOc2ccc(C(O)P(=O)(N(CC)CC)N(CC)CC)cc2OC)c(OC)c1)N(CC)CC (stereo unspecified)
IC50 [1]: 2.47 µM

COc1cc(/C=C/C(C)=O)ccc1OCCOc1ccc(/C=C/C(C)=O)cc1OC
fold change (FC) (Rattus norvegicus [12]): 2 | Activity (Rattus norvegicus [13]): inactive | Activity (Rattus norvegicus [14]): Active | inhibition in vivo at 10 mg/kg (Rattus norvegicus [15]): 33% | Activity (Rattus norvegicus [16]): 29% | Activity (Rattus norvegicus [17]): Active | inhibition in vivo at 10 mg/kg (Rattus norvegicus [18]): 33.3% | Activity (Rattus norvegicus [19]): Active | Activity (Rattus norvegicus [20]): Active | Activity (Rattus norvegicus [21]): Active | Activity (Rattus norvegicus [22]): inactive | IC50 [1]: 1.11 µM

COc1cc(C=S)ccc1OCCOc1ccc(C=S)cc1OC
IC50 [1]: 22.7 µM

COc1cc(C=O)ccc1OCCOc1ccc(C=O)cc1OC
IC50 [1]: 12.6 µM

COC(=O)/C=C/c1ccc(OCCOc2ccc(/C=C/C(=O)OC)cc2OC)c(OC)c1
IC50 [1]: 1.24 µM

CCOC(=O)/C=C/c1ccc(OCCOc2ccc(/C=C/C(=O)OCC)cc2OC)c(OC)c1
IC50 [1]: 5.98 µM
